{"source": "paper PMC4791539", "about": "“Crystal structure of Anoxybacillus α-amylase provides insights into maltose binding of a new glycosyl hydrolase subclass” (Scientific Reports, 2016)", "biological_target": "T1, TASKA (truncated ASKA) (Anoxybacillus ayderensis, UniProt I1VWH9)", "T1 construct": "signal peptide (1-23) and predicted C-terminal transmembrane region (479-505) removed; 6xHis tags at N- and C-termini (pET-28a); E. coli BL21(DE3); monomer in asymmetric unit", "T1 sequence (I1VWH9 24-478)": "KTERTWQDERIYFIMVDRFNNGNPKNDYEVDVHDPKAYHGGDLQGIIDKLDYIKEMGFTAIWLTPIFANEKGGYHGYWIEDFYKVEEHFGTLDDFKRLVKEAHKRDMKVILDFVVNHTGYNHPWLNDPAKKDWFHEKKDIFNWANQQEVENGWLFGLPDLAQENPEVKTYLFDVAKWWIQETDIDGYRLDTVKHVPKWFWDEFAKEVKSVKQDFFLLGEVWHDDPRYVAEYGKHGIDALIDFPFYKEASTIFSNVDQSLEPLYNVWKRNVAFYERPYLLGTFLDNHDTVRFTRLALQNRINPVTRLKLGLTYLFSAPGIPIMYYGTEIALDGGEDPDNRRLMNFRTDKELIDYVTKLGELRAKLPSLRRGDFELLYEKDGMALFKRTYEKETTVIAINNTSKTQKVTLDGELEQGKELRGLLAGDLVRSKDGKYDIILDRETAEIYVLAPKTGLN", "experiment": "UPLC-ELSD product analysis", "assay_type": "biochemical", "settings": "hydrolysed to glucose and maltose; co-crystal (TASKA-T) shows only maltose", "data": [{"compound": "OC[C@H]1O[C@H](O[C@H]2[C@H](O)[C@@H](O)[C@@H](O[C@H]3[C@H](O)[C@@H](O)C(O)O[C@@H]3CO)O[C@@H]2CO)[C@H](O)[C@@H](O)[C@@H]1O", "note": "(stereo partly shown) [maltotriose]", "values": [{"measurement": "UPLC-ELSD product analysis", "result": "glucose and maltose were produced following the hydrolysis of maltotriose"}]}]}
